Source: article PMC5591244, “Novel selective, potent naphthyl TRPM8 antagonists identified through a combined ligand- and structure-based virtual screening approach” (Scientific Reports, 2017)
“Also recorded” adds a separate entry of the source.

Experiments:
Format in all cases: cell-based
wt TRPM8 = target: T1, wt TRPM8 (Homo sapiens, UniProt Q7Z2W7); experiment: Calcium mobilization on HEK-293 cells transiently transfected with wt myc-tagged TRPM8; conditions: icilin at EC80, wt; read-out: pIC50, inhibition of icilin activation, wt TRPM8 (converted)
T1 construct: expressed in transfected cells; host or cells: HEK-293, transient (Lipofectamine 2000)
T1 sequence (Q7Z2W7 whole entry): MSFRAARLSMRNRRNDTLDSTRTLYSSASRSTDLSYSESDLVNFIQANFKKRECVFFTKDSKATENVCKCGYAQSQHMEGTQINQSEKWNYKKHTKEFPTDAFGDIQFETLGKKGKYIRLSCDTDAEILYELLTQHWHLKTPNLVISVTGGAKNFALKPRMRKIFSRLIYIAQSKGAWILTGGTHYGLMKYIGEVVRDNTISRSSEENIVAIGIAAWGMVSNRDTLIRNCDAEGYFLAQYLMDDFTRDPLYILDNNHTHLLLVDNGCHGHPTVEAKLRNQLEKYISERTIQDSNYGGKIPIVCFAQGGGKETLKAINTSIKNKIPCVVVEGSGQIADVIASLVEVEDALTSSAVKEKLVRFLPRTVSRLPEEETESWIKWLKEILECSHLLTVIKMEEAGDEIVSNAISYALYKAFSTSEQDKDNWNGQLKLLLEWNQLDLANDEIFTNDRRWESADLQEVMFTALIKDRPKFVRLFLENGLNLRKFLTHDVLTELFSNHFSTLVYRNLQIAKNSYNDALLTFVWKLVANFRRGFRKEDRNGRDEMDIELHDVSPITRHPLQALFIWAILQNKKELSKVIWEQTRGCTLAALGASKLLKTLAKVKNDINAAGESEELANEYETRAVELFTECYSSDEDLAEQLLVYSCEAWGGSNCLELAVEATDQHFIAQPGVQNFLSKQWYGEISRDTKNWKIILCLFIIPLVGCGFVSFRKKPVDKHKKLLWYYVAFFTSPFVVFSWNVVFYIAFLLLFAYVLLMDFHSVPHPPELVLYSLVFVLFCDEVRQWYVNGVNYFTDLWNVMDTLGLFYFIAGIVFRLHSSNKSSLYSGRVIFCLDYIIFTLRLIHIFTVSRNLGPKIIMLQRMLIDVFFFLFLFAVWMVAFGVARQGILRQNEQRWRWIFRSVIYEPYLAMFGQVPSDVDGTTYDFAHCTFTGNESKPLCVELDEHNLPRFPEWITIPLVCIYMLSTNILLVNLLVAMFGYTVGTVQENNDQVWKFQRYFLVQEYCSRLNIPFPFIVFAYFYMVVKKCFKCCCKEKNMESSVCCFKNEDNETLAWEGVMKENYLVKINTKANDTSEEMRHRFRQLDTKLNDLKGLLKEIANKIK
Description: (§1) Single point mutations were introduced in the hTRPM8-coding sequence, and the mutated TRPM8 was cloned as N-terminal c-myc tagged version into the pcDNA3 expression vector. This was done in that way that the single variations could be easily swapped from the myc-tagged expression construct into the non-tagged TRPM8 wild type expression construct.
The list of the variants is the following: variant 1, t2233g, a2234c (=Y745A); variant 2, a2236g, t2237c (=I746A); variant 3, a2395g, a2396c (=N799A) and variant 4, a2405c (D802A). The cloning project comprised three steps. First of all, a unique XhoI restriction site was inserted by site-directed mutagenesis (SDM) using DNA of the pcDNA3_TRPM8 construct as template. The 0.6 kb DNA fragment between the unique 5′ XhoI (introduced) and 3′ BamHI (already present) restriction sites comprised all positions of the four single point mutations and could be later used for their insertion as well as swapping between myc-tagged and non-tagged TRPM8 versions. […] The obtained data from at least four wells (as replicates) were analyzed with GraphPad PRISM® software (version 5, GraphPad Software Inc.) to calculate the mean and standard error of the mean[58], to create sigmoidal concentration-response curves and to calculate IC50 values.

TRPM8 I746A = target: T2, TRPM8 I746A (Homo sapiens, UniProt Q7Z2W7, I746A); experiment: Calcium mobilization on transiently transfected TRPM8 I746A mutant; conditions: icilin at EC80, I746A; read-out: pIC50, inhibition of icilin activation, I746A (converted)
T2 construct: expressed in transfected cells; host or cells: HEK-293, transient (Lipofectamine 2000)
T2 sequence (Q7Z2W7 whole entry I746A): as the sequence (Q7Z2W7 whole entry) above, with I746A counted along it
Description: as §1
(§2) The list of the variants is the following: variant 1, t2233g, a2234c (=Y745A); variant 2, a2236g, t2237c (=I746A); variant 3, a2395g, a2396c (=N799A) and variant 4, a2405c (D802A). The cloning project comprised three steps. First of all, a unique XhoI restriction site was inserted by site-directed mutagenesis (SDM) using DNA of the pcDNA3_TRPM8 construct as template. The 0.6 kb DNA fragment between the unique 5′ XhoI (introduced) and 3′ BamHI (already present) restriction sites comprised all positions of the four single point mutations and could be later used for their insertion as well as swapping between myc-tagged and non-tagged TRPM8 versions. In a second step, the c-myc tag sequence was introduced embedded within the TRPM8 coding sequence by PCR primers in two partially overlapping PCRs that were then joined by bridge PCR with the external 5′KpnI and internal 3′EcoRI primers and in the last step the point mutations 1 to 4 were inserted into pcDNA3_c-myc-TRPM8 by exchanging the wild type 5′XhoI-3′BamHI fragment (0.6 kb) with each of the corresponding variation fragment derived from synthetic DNA (provided by GeneArt, ThermoFisher Scientific).The myc-tagged constructs were transiently transfected in HEK-293 cells with Lipofectamine 2000 (Invitrogen) according to the manufacturer’s protocol. The pcDNA vectors containing the wt myc-tagged TRPM8 gene and the empty pcDNA3 (mock) were separately transfected into HEK-293 cells as controls. Cells were transfected and seeded on the same day at 17,500 cells/well in poly-D-lysine-coated 384-well plates (MATRIX #4332-CPL). Twenty-four hours after seeding, the activity of transfected TRPM8 receptors was tested using the calcium mobilization assay as described above. The analysis was performed on the basis of ΔF/F° (normalized MAX-MIN), where ΔF is the MAX between time points 117 and 182 minus the MIN between time points TP114 and TP116, and F° is the basal signal at time point TP0. The obtained data from at least four wells (as replicates) were analyzed with GraphPad PRISM® software (version 5, GraphPad Software Inc.) to calculate the mean and standard error of the mean[58], to create sigmoidal concentration-response curves and to calculate IC50 values.

TRPM8 D802A = target: T3, TRPM8 D802A (Homo sapiens, UniProt Q7Z2W7, D802A); experiment: Calcium mobilization on transiently transfected TRPM8 D802A mutant; conditions: Cooling agent 10 at EC80, D802A; read-out: pIC50, inhibition of Cooling agent 10 activation, D802A (converted)
T3 construct: expressed in transfected cells; host or cells: HEK-293, transient (Lipofectamine 2000)
T3 sequence (Q7Z2W7 whole entry D802A): as the sequence (Q7Z2W7 whole entry) above, with D802A counted along it
Description: as §1
as §2, with “Cells were transfected and seeded on the same day at 17,500 cells/well in poly-D-lysine-coated 384-well plates (MATRIX #4332-CPL). Twenty-four hours after seeding, the activity of transfected TRPM8 receptors was tested using the calcium mobilization assay as described above. The analysis was performed on the basis of ΔF/F° (normalized MAX-MIN), where ΔF is the MAX between time points 117 and 182 minus the MIN between time points TP114 and TP116, and F° is the basal signal at time point TP0.” left out

TRPM8 N799A = target: T4, TRPM8 N799A (Homo sapiens, UniProt Q7Z2W7, N799A); experiment: Calcium mobilization on transiently transfected TRPM8 N799A mutant; conditions: Cooling agent 10 at EC80, N799A; read-out: pIC50, inhibition of Cooling agent 10 activation, N799A (converted)
T4 construct: expressed in transfected cells; host or cells: HEK-293, transient (Lipofectamine 2000)
T4 sequence (Q7Z2W7 whole entry N799A): as the sequence (Q7Z2W7 whole entry) above, with N799A counted along it
Description: as §1, §2

TRPM8 = target: T5, TRPM8 (Homo sapiens, UniProt Q7Z2W7); experiment: Manual patch clamp (whole-cell voltage clamp); conditions: Cooling agent 10 50 μM, +40 mV, compound 1 300 nM
T5 construct: expressed in transfected cells
T5 sequence (Q7Z2W7 whole entry): as the sequence (Q7Z2W7 whole entry) above
Experimental: Sixteen hours before an experiment, cells were seeded onto poly-D-lysine-coated glass slides (150,000 cells each) and placed in 6-well plates in antibiotic-free medium. Immediately before experiments, the coated glass slides with seeded cells were washed five times with patch-clamp extracellular solution (145 mM NaCl, 10 mM EGTA, 10 mM HEPES, 10 mM Glucose, pH 7.4 with NaOH) and then placed into the recording chamber.
The electrophysiology study involved a whole-cell voltage clamp and intracellular solution consisting of 128 mM CsCl, 10 mM EGTA, 0.7 mM CaCl2, 3 mM MgCl2, 10 mM HEPES, and 5 mM Na2ATP at pH 7.2 with CsOH. For the pulse protocols, cells were held at +40 mV, and outward currents were acquired in uninterrupted recording mode. Data were recorded in standard whole-cell voltage experiments performed at room temperature. For data acquisition and further analysis, an EPC10 digitally controlled amplifier was utilized in combination with PATCHMASTER software (HEKA Electronics, Lambrect, Germany). The EPC10 provides automatic subtraction of capacitive currents by means of the prepulse. The data were filtered at 2.9 KHz (−3 dB, 4-pole Bessel lowpass) and digitized at 100 µs per point. […] Outward currents elicited by the addition of 50 μM cooling agent 10 or of cooling agent 10 (50 μM) plus compound 1 (300 nM) were recorded.

TRPA1 = TRPA1 (Homo sapiens, UniProt O75762); experiment: Selectivity calcium mobilization assay, TRPA1; conditions: agonist 10 μM AITC
Sequence of TRPA1 (O75762 whole entry, species assumed): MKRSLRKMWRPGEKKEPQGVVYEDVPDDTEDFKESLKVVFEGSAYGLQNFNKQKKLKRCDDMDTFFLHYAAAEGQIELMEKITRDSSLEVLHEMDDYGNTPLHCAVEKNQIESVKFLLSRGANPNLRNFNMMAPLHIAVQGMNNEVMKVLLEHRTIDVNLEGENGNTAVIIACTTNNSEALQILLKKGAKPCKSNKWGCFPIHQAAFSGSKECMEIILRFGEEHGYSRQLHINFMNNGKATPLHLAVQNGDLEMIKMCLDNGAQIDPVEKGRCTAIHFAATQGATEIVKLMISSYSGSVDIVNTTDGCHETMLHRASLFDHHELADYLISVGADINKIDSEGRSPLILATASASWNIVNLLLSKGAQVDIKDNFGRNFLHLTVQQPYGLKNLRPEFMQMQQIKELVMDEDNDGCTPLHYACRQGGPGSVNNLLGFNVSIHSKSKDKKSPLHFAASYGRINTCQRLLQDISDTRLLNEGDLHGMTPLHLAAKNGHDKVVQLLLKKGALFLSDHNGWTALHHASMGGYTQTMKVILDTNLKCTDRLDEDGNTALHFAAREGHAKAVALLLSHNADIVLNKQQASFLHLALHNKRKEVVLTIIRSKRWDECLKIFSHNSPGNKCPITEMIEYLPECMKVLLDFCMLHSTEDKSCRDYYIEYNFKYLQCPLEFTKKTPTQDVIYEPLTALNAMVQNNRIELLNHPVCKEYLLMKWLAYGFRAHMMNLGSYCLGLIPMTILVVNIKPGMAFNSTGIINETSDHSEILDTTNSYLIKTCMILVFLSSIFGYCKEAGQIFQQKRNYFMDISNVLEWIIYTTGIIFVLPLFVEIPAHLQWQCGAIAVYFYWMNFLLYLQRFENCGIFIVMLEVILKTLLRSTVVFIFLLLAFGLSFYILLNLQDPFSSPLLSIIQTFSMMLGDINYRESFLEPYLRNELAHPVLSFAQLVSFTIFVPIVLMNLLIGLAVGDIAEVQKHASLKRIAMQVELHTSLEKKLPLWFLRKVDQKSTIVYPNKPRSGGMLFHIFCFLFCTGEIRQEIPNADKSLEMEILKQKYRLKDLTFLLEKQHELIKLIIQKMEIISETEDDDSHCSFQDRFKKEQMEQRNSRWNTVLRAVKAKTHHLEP
Experimental: For calcium mobilization assays, cells were seeded at 10,000 cells/well in 384-well plates coated with poly-D-lysine (MATRIX black/clear bottom #4332-CPL, Thermo Scientific, Waltham, MA, USA) in complete medium.Twenty-four hours after seeding, the plates were washed with Tyrode’s buffer with a Bio-Tek-ELx405 Microplate Washer (Merck Millipore; Billerica, MA, USA), and then 10 µl/well of a solution containing the fluorescent Ca^2+ indicator Fluo-4 NW dye was added. Cells were incubated for 1 h at room temperature before test compounds were added at 3X the concentration with respect to the final wanted concentration to be tested with a FLIPR TETRA system (Molecular Devices, Sunnyvale, CA, USA). Calcium mobilization was monitored over a period of 5 min. A second injection of 10 µl/well of a reference agonist (icilin or Cooling agent 10) at 4X concentration in assay buffer was performed using the FLIPR TETRA system. Of note, for selectivity assays, the following agonists were used: 10 μM AITC (allyl isothiocyanate) for TRPA1; 100 nM Capsaicin for TRPV1; and 20 nM GSK1016790A for TRPV4.

Question: `Clc1c(OCCNCc2ccco2)ccc2ccccc12` [Compound 1] was tested. Which IC50 (wt TRPM8) did it give?
Answer: 0.0631 µM

Question: What about the IC50 (TRPM8 I746A) of the same compound?
Answer: 0.02 µM

Question: And the IC50 (TRPM8 D802A)?
Answer: 3.16 µM

Question: What about the IC50 (TRPM8 N799A) of the same compound?
Answer: 0.01 µM

Question: And the “Effect on outward current” value (TRPM8)?
Answer: completely abrogated electrical impulse transmission; also recorded: almost completely blocked

Question: And the “Activity on TRPA1” value (TRPA1)?
Answer: completely inactive; also recorded: didn’t have any effect
